From patent US20070275877A1, “Methods for Treating or Ameliorating Ghrelin-Associated Diseases and Disorders” (AMYLIN PHARMACEUTICALS, INC., priority 2003, published 2007)
One block for each compound: values may come before it. No end group written: not given here.

Key:
[1] = cited from earlier work
active ghrelin [2] = assay: Amylin receptor antagonist i.v., plasma ghrelin in fed rats (Example 4, FIG. 4B); type: in vivo; details: AC187 3 mg/rat i.v.; five minutes after administration; fed animals; saline controls 1.4±6.4% decrease, P<0.03
Experimental: (§1) FIGS. 4A and 4B depict graphs of the effects of an amylin receptor antagonist on ghrelin levels in an animal model.
(§2) The following methods apply to Examples 1-4 as indicated. Male Harlan Sprague Dawley® (HSD) rats were housed at 22.8±0.8° C. in a 12:12 hour light:dark cycle. All experiments were performed in the light cycle. Animals were fasted for approximately 20 hours before experimentation (examples 1, 2 and 3) or fed ad libidum (Example 4). All animals were given free access to water until the start of the experiment. The animals' tails were anesthetized with 20% benzocaine (Hurricaine, Beutlich Pharmaceutical, Waukegan, Ill.), and blood samples were collected from the tail vein. Total and active ghrelin concentrations were measured using Linco RIA kits GHRA-89HK and GHRA-88HK, respectively.
In a second, related experiment, baseline blood samples for ghrelin to be assayed were taken at t=0 minutes. AC187 (lot#AR2237-18B, Amylin Pharmaceuticals, Inc.), at a dose of 3 mg/rat in 300 μl of saline or saline vehicle alone, was given by intravenous injection in the tail vein at t=0. Plasma samples were collected at time 0, 5, and 15 minutes. Five minutes after administration of AC187 in fed animals, active ghrelin concentrations increased by 16.3±4.0%, as compared to a 1.4±6.4% decrease in saline controls (P<0.03), see FIG. 4B.

active ghrelin [3] = assay: Amylin receptor antagonist s.c., plasma ghrelin in non-fasted rats given pentagastrin (Example 4, FIG. 4A); type: in vivo; details: AC187 3 mg/rat s.c. at -5 min, pentagastrin 125 μg/kg s.c. at 0 min
Experimental: as §1, §2
These experiments were conducted to determine whether the amylin receptor antagonist AC187 blocked an effect of endogenous amylin on plasma ghrelin levels in non-fasted rats. Baseline blood samples for ghrelin to be assayed were taken at t=−10 min. AC187 (lot #AR741-72, Amylin Pharmaceuticals), at a dose of 3 mg/rat in 300 μl of saline, or saline vehicle alone, was given by subcutaneous injection (n=6, 8 respectively) at t=−5 min. Animals additionally received a subcutaneous injection of pentagastrin (Sigma, Lot#050K1525) in the amount of 125 μg/kg body mass at time=0 min. […]

[4] = Crossover study of pramlintide in humans: ad libitum buffet meal intake (Example 6); type: in vivo, human; details: single SC dose of pramlintide 30 μg
Experimental: (§3) Ghrelin levels were measured in a single-center, randomized, double-blind, placebo-controlled, two-period, crossover study was designed to examine the acute effects of pramlintide, an amylin analog, in humans. The study consisted of two treatment periods (Period 1/Visit 2 and Period 2/Visit 3) with at least 72 h between each treatment period. After successful completion of all Screening procedures (including informed consent), subjects (n=15) were randomly assigned to one of two treatment sequences (pramlintide: placebo or placebo: pramlintide). Subjects were instructed to fast from 2200 h on the evening before both treatment periods until the start of the test (the next morning).
On the mornings of Period 1 and Period 2, an intravenous cannula was placed in an antecubital vein for blood sampling (t=−1 h). Vital signs and weight were measured at this time. During each treatment period, subjects received study medication (pramlintide or placebo) immediately followed by a standardized, liquid preload meal, which was to be consumed within 3 min. Subjects received a single SC dose of pramlintide 30 μg or placebo. One hour later (t=1 h), subjects consumed an ad libitum buffet meal, which was offered for 45 min. The buffet meal included a selection of carbohydrate-rich foods in quantities in excess of what subjects were expected to eat. Venous blood samples were collected over a 5.5-h period (t=−0.5 h to 5 h) for the measurement of postprandial metabolic and hormonal responses. Procedures for Period 2 were exactly as those described for Period 1, only the alternate treatment was given.

ghrelin levels = assay: Crossover study of pramlintide in humans: ghrelin levels (Example 6); type: in vivo, human; details: single SC dose of pramlintide 30 μg, n=15, FIG. 6
Experimental: FIG. 6 depicts a graph of the effect of an amylin analog on ghrelin levels in humans.
as §3
On the mornings of Period 1 and Period 2, an intravenous cannula was placed in an antecubital vein for blood sampling (t=−1 h). Vital signs and weight were measured at this time. During each treatment period, subjects received study medication (pramlintide or placebo) immediately followed by a standardized, liquid preload meal, which was to be consumed within 3 min. Subjects received a single SC dose of pramlintide 30 μg or placebo. […] The buffet meal included a selection of carbohydrate-rich foods in quantities in excess of what subjects were expected to eat. […]

[5] = treated test animals; e.g., provoking marked hyperlactemia followed by hyperglycemia; cited from earlier work
[6] = system: active (acylated) ghrelin; assay: Effect of rat amylin on ghrelin levels in pentagastrin-treated fasted rats (Example 1); type: in vivo; details: 10 μg rat amylin s.c. 20 min after 125 μg/kg pentagastrin s.c.
Experimental: FIG. 1 depicts a graph of the effect of exogenously administered rat amylin on endogenous ghrelin levels in an animal model. 125 μg pentagastrin (PG) was administered at t=0 and 10 μg amylin was administered at t=20 (dotted lines).
as §2
HSD rats were subjected to periodic blood sampling from the topically anesthetized tail and ghrelin levels were assayed. At t=0, rats (n=6) were injected s.c. with 125 μg/kg pentagastrin (Sigma) to stimulate gastric acid secretion (PG=0 min in FIG. 1), and 20 min later were injected subcutaneously (s.c.) with 10 μg rat amylin. The blood samples were analyzed for total and active (acylated) ghrelin (Linco).

active ghrelin [7] = assay: Amylin effect on ghrelin in area postrema-lesioned and sham operated rats (Example 5); type: in vivo, rat
Experimental: FIG. 5 depicts a graph of the effect of the area postrema on amylin's effect on ghrelin secretion.
In this experiment, fasted, Sprague-Dawley® rats with localized lesions of the area postrema (AP) made by vacuum aspiration 3 weeks before the experiments and sham operated rats (sham) were injected s.c. with amylin (30 μg/kg) or saline (n=4, 4 respectively). At t=0, 10, 20, 30, 60, 90 and 120 minutes after the s.c. injection, total ghrelin concentrations were measured and reports as % of the baseline.
Twenty minutes after a 30 μg/kg subcutaneous amylin injection in Sham rats, active ghrelin concentration decreased by 31.3±3.3%, while active ghrelin concentrations in saline controls increased by 23.5±22.1% (P<0.05).

total plasma ghrelin [8] = assay: Effect of rat amylin on ghrelin levels with and without pentagastrin in fasted rats (Example 2); type: in vivo
Experimental: FIGS. 2A and 2B depict graphs of the effect of rat amylin on ghrelin levels in an animal model in the presence and absence of pentagastrin.
as §2
These experiments were conducted to examine whether exogenous amylin inhibits ghrelin secretion independent of pentagastrin stimulation. Fasted rats were given either a subcutaneous injection of saline or of 30 μg/kg rat amylin (FIG. 2A) or a subcutaneous injection of either saline or 125 μg/kg pentagastrin (Sigma, Lot#050K1525) (FIG. 2B) at time=0 min. […]

total plasma ghrelin [9] = assay: Dose-response effects of amylin on ghrelin levels in fasted rats (Example 3); type: in vivo, rat
Experimental: FIGS. 3A and 3B depict graphs of dose-response effects of rat amylin on ghrelin levels in an animal model.
as §2
These experiments were conducted to identify dose-response effects of amylin on ghrelin levels in fasted rats. Rat amylin (lot #AR2081-42A, Amylin Pharmaceuticals) in 100 μl saline was given by subcutaneous injections at doses: 0, 1, 10, 30 and 100 μg/kg (n=5, 4, 5, 5, 4 respectively) at time=0 min. Blood plasma samples were collected at time=0, 10, 20, 30, 60, 90 and 120 min after amylin injection. […] Pairwise statistical analyses were performed using Student's t-test (Instat v2.0, GraphPad Software Inc, San Diego). Results are reported as mean±standard error of the mean, and P<0.05 is used as the level of significance.

Compound: ^25Pro^26Val^28,29 Pro-h-amylin (KCNTATCATQRLANFLVHSSNNFGPVLPPTNVGSNTY)
- solubility characteristics compared to human amylin [1]: more desirable

- increase of active ghrelin concentrations (active ghrelin [2]): 16.3±4.0%
Compound: Ac ^30Asn, ^32Tyr-sCT[8-32] [AC187]
- active ghrelin concentrations compared to saline injected controls (active ghrelin [3]): higher

Compound: CC[C@H](C)[C@H](NC(=O)[C@@H]1CCCN1C(=O)CNC(=O)[C@H](Cc1ccccc1)NC(=O)[C@H](CC(N)=O)NC(=O)[C@H](CC(N)=O)NC(=O)[C@H](CO)NC(=O)[C@H](CO)NC(=O)[C@H](Cc1c[nH]cn1)NC(=O)[C@@H](NC(=O)[C@H](CC(C)C)NC(=O)[C@H](Cc1ccccc1)NC(=O)[C@H](CC(N)=O)NC(=O)[C@H](C)NC(=O)[C@H](CC(C)C)NC(=O)[C@H](CCCNC(=N)N)NC(=O)[C@H](CCC(N)=O)NC(=O)[C@@H](NC(=O)[C@H](C)NC(=O)[C@@H]1CSSC[C@H](NC(=O)[C@@H](N)CCCCN)C(=O)N[C@@H](CC(N)=O)C(=O)N[C@@H]([C@@H](C)O)C(=O)N[C@@H](C)C(=O)N[C@@H]([C@@H](C)O)C(=O)N1)[C@@H](C)O)C(C)C)C(=O)N[C@@H](CC(C)C)C(=O)N1CCC[C@H]1C(=O)N1CCC[C@H]1C(=O)N[C@H](C(=O)N[C@@H](CC(N)=O)C(=O)N[C@H](C(=O)NCC(=O)N[C@@H](CO)C(=O)N[C@@H](CC(N)=O)C(=O)N[C@H](C(=O)N[C@@H](Cc1ccc(O)cc1)C(N)=O)[C@@H](C)O)C(C)C)[C@@H](C)O [pramlintide, ^25,28,29Pro-h-amylin]
- duration of the meal time compared to placebo [4]: reduced
- fat, carbohydrate, and protein intake compared to placebo [4]: proportionate reductions
- total caloric intake of the buffet meal compared to placebo [4]: reduced
- ghrelin levels following an ad libitum buffet meal compared to placebo (ghrelin levels): further reduced

Compound: des-^1Lys^18Arg^25,28Pro-h-amylin
- amylin activity in vivo [5]: show amylin activity in vivo

Compound: rat amylin (KCNTATCATQRLANFLVRSSNNLGPVLPPTNVGSNTY; not fully specified; ends and bridges not checked; UniProt P12969 38-74, looked up) [rat amylin peptide hormone (AC0128, Amylin Pharmaceuticals)]
- time within which active ghrelin was reduced by 50% [6]: ≤ 1 h
- reduction of active ghrelin ([6]; FIG. 1): 50%
- difference in ghrelin concentration, amylin versus saline (active ghrelin [7]; AP-lesioned rats, 30 μg/kg s.c. amylin, P=0.24): no significant difference
- increase of ghrelin concentration (active ghrelin [7]; AP-lesioned rats, 30 μg/kg s.c. amylin, saline +49.6±21.0%, P=0.24): 13.7±17.6%
- decrease of active ghrelin concentration (active ghrelin [7]; Sham rats, twenty minutes after 30 μg/kg s.c. amylin, saline controls increased by 23.5±22.1%, P<0.05): 31.3±3.3%
- plasma ghrelin compared to the control, amylin alone (total plasma ghrelin [8]; 30 μg/kg rat amylin s.c. without pentagastrin): reduced
- total plasma ghrelin compared to the saline control (total plasma ghrelin [8]; 30 μg/kg rat amylin s.c., FIGS. 2A and 2B): reduction in total plasma ghrelin
- inhibition of ghrelin at lowest dose (total plasma ghrelin [9]; amylin dose of 1 μg/kg s.c.): trend to inhibit ghrelin
- reduction of ghrelin, significance (total plasma ghrelin [9]; amylin doses of 10 μg/kg and above s.c., P<0.05 level): statistically significant
- total plasma ghrelin concentrations, dose-response (total plasma ghrelin [9]; rat amylin s.c. 0, 1, 10, 30 and 100 μg/kg, fasted rats, FIG. 3A): dose-dependent reduction
- time of ghrelin concentration nadirs after amylin injection (total plasma ghrelin [9]; rat amylin s.c. 1-100 μg/kg, fasted rats): 60 to 90 min

Compound: des-^1Lys-h-amylin (CNTATCATQRLANFLVHSSNNFGAILSSTNVGSNTY; ends and bridges not checked; cysteine pairing not given here; UniProt P10997 35-70, looked up, fragment)
- amylin activity in vivo [5]: show amylin activity in vivo

Compound: ^28Pro-h-amylin (KCNTATCATQRLANFLVHSSNNFGAILPSTNVGSNTY)
- amylin activity in vivo [5]: show amylin activity in vivo

Compound: ^18Arg^25,28Pro-h-amylin (KCNTATCATQRLANFLVRSSNNFGPILPSTNVGSNTY)
- solubility characteristics compared to human amylin [1]: more desirable
- amylin activity in vivo [5]: show amylin activity in vivo
